In patent US11793779B2, “Hica for use in prophylaxis and/or treatment of a disease or condition involving degradation of cartilage and/or disruption of cartilage homeostasis and/or integrity” (Salarusta Oy, priority 2020, dated 2023):

What was measured:
[1] = biological target: T1, recombinant human ADAMTS-5 (Homo sapiens, UniProt Q9UNA0); assay: ADAMTS-5 mediated break down of aggrecan (SDS-PAGE, silver stain); format: biochemical; details: 10% racemic HICA, pH 7.4, incubation 2 d, FIG. 1 line 5
T1 construct: purchased Chemicon International Inc. CC1034
T1 sequence (Q9UNA0 262-930): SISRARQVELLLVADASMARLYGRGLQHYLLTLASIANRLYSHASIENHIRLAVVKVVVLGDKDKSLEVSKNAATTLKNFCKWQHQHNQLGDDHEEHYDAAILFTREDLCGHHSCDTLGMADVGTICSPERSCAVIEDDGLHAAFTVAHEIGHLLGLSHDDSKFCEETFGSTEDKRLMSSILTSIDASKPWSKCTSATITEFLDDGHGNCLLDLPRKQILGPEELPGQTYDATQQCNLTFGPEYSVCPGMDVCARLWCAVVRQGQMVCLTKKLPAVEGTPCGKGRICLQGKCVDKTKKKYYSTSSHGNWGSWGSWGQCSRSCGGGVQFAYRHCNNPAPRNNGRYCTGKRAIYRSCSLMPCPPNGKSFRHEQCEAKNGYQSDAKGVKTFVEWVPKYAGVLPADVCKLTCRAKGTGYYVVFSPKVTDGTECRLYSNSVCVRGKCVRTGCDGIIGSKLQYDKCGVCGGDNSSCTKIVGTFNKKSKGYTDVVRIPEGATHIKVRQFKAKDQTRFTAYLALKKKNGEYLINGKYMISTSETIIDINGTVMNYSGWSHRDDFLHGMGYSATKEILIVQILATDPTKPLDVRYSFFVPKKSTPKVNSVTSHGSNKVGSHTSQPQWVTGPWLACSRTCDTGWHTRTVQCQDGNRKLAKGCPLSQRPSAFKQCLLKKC
Description: As positive inhibitor controls Ilomastat (Ilo, CC1010, Millipore) and chlorhexidine (CHX, Corsodyl®, [2 mg/ml] (GlaxoSmithKline, Brøndby, Denmark) were used and 50 mM Tris-HCl-buffer (TNC): pH 7.5; 0.2 M NaCl; 1.0 mM CaCl2) was used as neutral assay buffer.
MMP-13 was preincubated 1 hour at 37° C. with p-aminophenylmercuric acetate (APMA, A9563, Sigma-Aldrich) to optimally activate (pro)MMP-13. As substrate, Aggrecan was added and then ADAMTS-5 or activated MMP-13 as catalytic/proteolytic enzyme and TNC, as neutral control, and 10% HICA, CHX or Ilo as protease/MMP-inhibitors let incubated together from 1 hour (h) to 2 days (d). The enzyme reactions terminated by boiling with modified Laemmli buffer. The samples were analysed by 8% SDS-PAGE and after electrophoresis the defragmentation of Aggrecan was visualised using Silver Stain Pierce®.
Sample with concentrations in lines: • 1. 0.25 μl molecular weight standards. Bio-Rad • 2. 4.2 μl Aggrecan (0.5 μg/μl) • 3. 4 μl ADAMTS-5 (0.1 μg/μl) • 4. 4.2 μl Aggrecan+4 μl ADAMTS-5+6 μl TNC-buffer. inc: 2d • 5. 4.2 μl Aggrecan+4 μl ADAMTS-5+6 μl 10% HICA. inc: 2d • 6. 4.2 μl Aggrecan+4 μl ADAMTS-5+6 μl CHX (2 mg/ml). inc: 2d • 7. 1 μl MMP-13 (0.2 μg/μl)+3 μl 2 mM APMA+6 μl TNC • 8. 4.2 μl Aggrecan+1 μl MMP-13 (0.2 μg/μl)+3 μl 2 mM APMA+6 μl TNC. inc: 1h • 9. 4.2 μl Aggrecan+1 μl MMP-13 (0.2 μg/μl)+3 μl 2 mM APMA+6 μl TNC. inc: 2d • 10. […]

[2] = test system: type II collagen C2C neoepitope; assay: Serum type II collagen C2C neoepitope (ELISA) in 4-week double-blind study; format: in vivo, human
Description: (§1) In order to assess the effects of HICA on type II collagen and hyaluronic acid in healthy adults in vivo a study was conducted, where fifteen healthy male athletes (age 21.3±2.8 yr) volunteered for the 4-week study with double-blind design (Table 1). They were randomized to two parallel groups. Subjects in Group 1 (n=8, age 22.8±4.6 yr, height 179±6 cm, weight 76.2±6.9 kg, fat % 14.1±3.7%) received 583.2 mg of sodium salt of HICA (corresponding 500 mg of HICA) thrice a day for 4 weeks, and those in Group 2 (n=7, age 21.3±3.0 yr, height 178±5 cm, weight 73.5±5.0 kg, fat % 11.1±3.0%) received placebo (650 mg of maltodextrin) thrice a day for the same period. The subjects and the controls received repacked substance of equal volume (1.5 ml) which they were advised to mix with liquid. The subjects and the controls kept physical training constant during the study period, and they kept training daily. Serum specimens were obtained at baseline and in the end of the treatment. Specimens were aliquoted and immediately frozen; serum was collected and frozen at −70° C.
A kit for determination of the type II collagen C2C neoepitope was provided by Ibex Technologies (Montreal, Quebec, Canada). It was measured by means of an enzyme-linked immunosorbent assay (ELISA) (Kojima, Mwale et al. 2001). […]

[3] = Characteristics of the subjects after four weeks on HICA; format: in vivo, human; details: Mean ± SD
Description: as §1
The Analysis of Variance (ANOVA) was used to assess statistical differences between the treatment groups. Data were handled as changes between the measurements before and after the treatments. Further, paired t-test was used to compare values before and after treatments. Probabilities less than 0.05 were regarded as statistically significant. Statistical analyses were carried out using the software program Systat for Windows (Statistics, Version 9, Evanston, IL, USA, 1992). The results are presented as means±SEM.

inhibition of break down of Aggrecan by ADAMTS-5 [1]: inhibited the break down of Aggrecan
Hematocrite after HICA ([3]; before 0.44 ± 0.02, p = n.s. vs placebo): 0.45 ± 0.02
Body Fat procent after HICA ([3]; before 14.1 ± 3.7, p = n.s. vs placebo): 14.0 ± 2.5%
Weight after HICA ([3]; before 76.2 ± 6.9, p = n.s. vs placebo): 76.5 ± 8.4 kg
Hemoglobin after HICA ([3]; before 152 ± 7, p = n.s. vs placebo): 151 ± 5 g/L
SMILES: CC(C)CC(O)C(=O)O (racemic) [HICA, 2-hydroxy-4-methylpentanoic acid]
S-C2C after HICA ([2]; Mean ± SEM, n=8 healthy male athletes, sodium salt of HICA corresponding 500 mg HICA thrice a day for 4 weeks, before 204 ± 14, p = 0.069 vs placebo): 189 ± 10 ng/mL
decrease in serum C2C ([2]; during 4-week administration of HICA, placebo 2%, p=0.069 between the groups): 8%
